# Experimental data from the NIST ThermoML archive (doi:10.1016/j.jct.2012.10.025).
# ± gives the expanded uncertainty stated by the source.
# Conditions: Liquid; for speed of sound: Pulse-echo method; for mass density: Vibrating tube method
smiles,measurement,setting,value
CCCCCCCCCCC [undecane],speed of sound,"278 K, 1000 kPa",1355.2 ± 5.6 m/s
same,mass density,"278 K, 1000 kPa",752.64 ± 1.2 kg/m3
same,speed of sound,"278 K, 20000 kPa",1455.4 ± 6 m/s
same,mass density,"278 K, 20000 kPa",764.19 ± 1.3 kg/m3
same,speed of sound,"278 K, 40000 kPa",1547.8 ± 6.3 m/s
same,mass density,"278 K, 40000 kPa",775.36 ± 1.4 kg/m3
same,speed of sound,"278 K, 60000 kPa",1629.3 ± 6.6 m/s
same,mass density,"278 K, 60000 kPa",785.14 ± 1.4 kg/m3
same,speed of sound,"278 K, 80000 kPa",1702.6 ± 6.9 m/s
same,speed of sound,"278 K, 100000 kPa",1770.5 ± 7.2 m/s
same,speed of sound,"288 K, 1000 kPa",1315 ± 5.4 m/s
same,mass density,"288 K, 1000 kPa",745.18 ± 1.2 kg/m3
same,speed of sound,"288 K, 20000 kPa",1419.1 ± 5.8 m/s
same,mass density,"288 K, 20000 kPa",757.29 ± 1.3 kg/m3
same,speed of sound,"288 K, 40000 kPa",1514.4 ± 6.2 m/s
same,mass density,"288 K, 40000 kPa",768.82 ± 1.4 kg/m3
same,speed of sound,"288 K, 60000 kPa",1598 ± 6.5 m/s
same,mass density,"288 K, 60000 kPa",778.9 ± 1.4 kg/m3
same,speed of sound,"288 K, 80000 kPa",1673 ± 6.8 m/s
same,speed of sound,"288 K, 100000 kPa",1742.4 ± 7.1 m/s
same,speed of sound,"298 K, 1000 kPa",1275.2 ± 5.2 m/s
same,mass density,"298 K, 1000 kPa",737.58 ± 1.2 kg/m3
same,speed of sound,"298 K, 20000 kPa",1383.2 ± 5.7 m/s
same,mass density,"298 K, 20000 kPa",750.5 ± 1.3 kg/m3
same,speed of sound,"298 K, 40000 kPa",1481.3 ± 6.1 m/s
same,mass density,"298 K, 40000 kPa",762.53 ± 1.3 kg/m3
same,speed of sound,"298 K, 60000 kPa",1566.9 ± 6.4 m/s
same,mass density,"298 K, 60000 kPa",773.01 ± 1.4 kg/m3
same,speed of sound,"298 K, 80000 kPa",1643.4 ± 6.7 m/s
same,speed of sound,"298 K, 100000 kPa",1714.4 ± 7 m/s
same,speed of sound,"308 K, 1000 kPa",1236.3 ± 5.1 m/s
same,mass density,"308 K, 1000 kPa",729.86 ± 1.2 kg/m3
same,speed of sound,"308 K, 20000 kPa",1348.6 ± 5.5 m/s
same,mass density,"308 K, 20000 kPa",743.8 ± 1.3 kg/m3
same,speed of sound,"308 K, 40000 kPa",1449.8 ± 5.9 m/s
same,mass density,"308 K, 40000 kPa",756.47 ± 1.3 kg/m3
same,speed of sound,"308 K, 60000 kPa",1537.3 ± 6.3 m/s
same,mass density,"308 K, 60000 kPa",767.47 ± 1.4 kg/m3
same,speed of sound,"308 K, 80000 kPa",1615.1 ± 6.6 m/s
same,speed of sound,"308 K, 100000 kPa",1687.2 ± 6.9 m/s
same,speed of sound,"318 K, 1000 kPa",1197.9 ± 4.9 m/s
same,mass density,"318 K, 1000 kPa",722.02 ± 1.2 kg/m3
same,speed of sound,"318 K, 20000 kPa",1314.1 ± 5.4 m/s
same,mass density,"318 K, 20000 kPa",737.19 ± 1.2 kg/m3
same,speed of sound,"318 K, 40000 kPa",1418.4 ± 5.8 m/s
same,mass density,"318 K, 40000 kPa",750.63 ± 1.3 kg/m3
same,speed of sound,"318 K, 60000 kPa",1508.1 ± 6.2 m/s
same,mass density,"318 K, 60000 kPa",762.26 ± 1.4 kg/m3
same,speed of sound,"318 K, 80000 kPa",1587.7 ± 6.5 m/s
same,speed of sound,"318 K, 100000 kPa",1661.4 ± 6.8 m/s
